For 27 compounds, Ki and IC50 results are on record in patent publication US9540323B2 (BRISTOL-MYERS SQUIBB COMPANY, priority 2012, dated 2017).

Test [1] addresses cloned human P2Y1 receptors (Homo sapiens (Human), UniProt P47900). Put plainly: Binding Assay B - Scintillation Proximity Assay (SPA) for P2Y1 binding, [33P] 2MeS-ADP. Conditions: SPA, 0.3 nM [33P] 2MeS-ADP, Cheng-Prusoff; read-out: P2Y1 Ki (nM) using binding assay B. The protocol:
Binding Assay B—Scintillation Proximity Assay (SPA) for P2Y1 Binding
A SPA membrane binding assay was used to identify inhibitors of [^33P] […] Reactions were allowed to proceed to completion at room temperature for 1 hour followed by centrifugation of the plate for 5 min. About 40 μL of the aqueous solution was aspirated. Plates were sealed and the [^33P]
A general note: SPA uses beads or plates that emit light when radiolabelled molecules are held near them.

In test [2] the test system is human platelet rich plasma (PRP). Put plainly: ADP induced platelet aggregation assay. The following applies: Homo sapiens, Platelet, 5 min, read-out: PA IC50 (μM) @ 10 μM ADP, human PRP, 10 μM ADP, AUC at 5 minute.

cloned human P2Y1 receptors, sequence (P47900 whole entry): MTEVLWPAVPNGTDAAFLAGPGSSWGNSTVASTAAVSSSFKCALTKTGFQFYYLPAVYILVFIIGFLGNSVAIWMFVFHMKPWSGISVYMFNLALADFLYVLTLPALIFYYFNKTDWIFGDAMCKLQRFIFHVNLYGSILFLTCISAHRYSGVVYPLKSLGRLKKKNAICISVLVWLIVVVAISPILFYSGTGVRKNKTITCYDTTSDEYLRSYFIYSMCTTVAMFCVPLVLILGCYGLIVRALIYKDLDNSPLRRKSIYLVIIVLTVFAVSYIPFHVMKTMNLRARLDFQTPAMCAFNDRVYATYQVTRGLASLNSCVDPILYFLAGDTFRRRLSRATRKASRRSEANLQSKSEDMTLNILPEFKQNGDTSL

In the case of `CC(C)CN1CCC(c2ccc(NC(=O)Nc3ccccc3N3CC(C)(C)c4c(-c5ccc(F)cc5)ccc(O)c43)cc2)CC1` [Example 211, 1-(2-(4-(4-Fluorophenyl)-7-hydroxy-3,3-dimethylindolin-1-yl)phenyl)-3-(4-(1-isobutylpiperidin-4-yl)phenyl)urea], the Ki (as a rule, the equilibrium dissociation constant of an inhibitor or competing ligand from its target) in test [1] is 27.1 nM. Besides, the IC50 (as a rule, the midpoint of a concentration-inhibition curve) in test [2] came to 0.46 µM.

With `CCC1(CC)CN(c2ccccc2NC(=O)Nc2nc3ccc(Cl)cc3s2)c2c(O)cccc21` [Example 9, 1-(6-Chlorobenzo[d]thiazol-2-yl)-3-(2-(3,3-diethyl-7-hydroxyindolin-1-yl)phenyl)urea], in test [1], the Ki was found to be 14.2 nM. In addition, the IC50 in test [2] came out at 0.39 µM.

Regarding `CCC1(CC)CN(c2ccccc2NC(=O)Nc2ccc(C3CCN(CC(C)C)CC3)cc2)c2c(O)ccc(Cl)c21` [Example 50, 1-(2-(4-Chloro-3,3-diethyl-7-hydroxyindolin-1-yl)phenyl)-3-(4-(1-isobutylpiperidin-4-yl)phenyl)urea], the Ki in test [1] is 6.6 nM. Besides, in test [2], the IC50 was found to be 0.86 µM.

On to `CCC1(CC)CN(c2ccccc2NC(=O)Nc2ccc(C3CCCN3CC(C)(C)C)cc2)c2c(O)cccc21` (stereo not drawn) [Example 7, 1-(2-(3,3-Diethyl-7-hydroxyindolin-1-yl)phenyl)-3-(4-(1-neopentylpyrrolidin-2-yl)phenyl)urea], for which the Ki in test [1] worked out at 8.6 nM. Further, the IC50 in test [2] is 0.55 µM.

Take `CC1(C)CN(c2ccccc2NC(=O)Nc2ccc(OC(F)(F)F)cc2)c2c(O)ccc(-c3ccc(Cl)s3)c21` [Example 121, 1-(2-(4-(5-Chlorothiophen-2-yl)-7-hydroxy-3,3-dimethylindolin-1-yl)phenyl)-3-(4-(trifluoromethoxy)phenyl)urea]: in test [1], the Ki turned out to be 113 nM. In test [2], the IC50 stood at 0.2 µM.

Turning to `CCOC(=O)C1(C)CN(c2ccccc2NC(=O)Nc2nc3ccc(F)cc3s2)c2c(O)ccc(Cl)c21` (stereo not drawn) [Example 76, Ethyl 4-chloro-1-(2-(3-(6-fluorobenzo[d]thiazol-2-yl)ureido)phenyl)-7-hydroxy-3-methylindoline-3-carboxylate], the Ki in test [1] was determined as 11.5 nM. In addition, the IC50 in test [2] was found to be 0.4 µM.

As for `CCN1CCc2nc(NC(=O)Nc3ccccc3N3CC(C)(C)c4c(C(F)(F)F)ccc(O)c43)sc2C1` [Example 20, 1-(5-Ethyl-4,5,6,7-tetrahydrothiazolo[5,4-c]pyridin-2-yl)-3-(2-(7-hydroxy-3,3-dimethyl-4-(trifluoromethyl)indolin-1-yl)phenyl)urea], in test [1], the Ki came to 18.6 nM. Moreover, the IC50 in test [2] was determined as 0.95 µM.

On to `CSc1ncc(-c2c(F)cc(O)c3c2C(C)(C)CN3c2ccccc2NC(=O)Nc2ccc(OC(F)(F)F)cc2)cn1` [Example 189, 1-(2-(5-Fluoro-7-hydroxy-3,3-dimethyl-4-(2-(methylthio)pyrimidin-5-yl)indolin-1-yl)phenyl)-3-(4-(trifluoromethoxy)phenyl)urea], for which, in test [1], the Ki was found to be 7.2 nM. The concentration for half-maximal inhibition (IC50) in test [2] was 0.25 µM.

Turning to `CC1(C)CN(c2ccccc2NC(=O)Nc2csc(Cl)n2)c2c(O)ccc(C(F)(F)F)c21` [Example 16, 1-(2-Chlorothiazol-4-yl)-3-(2-(7-hydroxy-3,3-dimethyl-4-(trifluoromethyl)indolin-1-yl)phenyl)urea], the Ki in test [1] is 6.2 nM. The IC50 in test [2] is 0.12 µM.

As to `CC1(C)CN(c2ccccc2NC(=O)Nc2nc3ccc(Br)cc3s2)c2c(O)ccc(Br)c21` [Example 42, 1-(2-(4-Bromo-7-hydroxy-3,3-dimethylindolin-1-yl)phenyl)-3-(6-bromobenzo[d]thiazol-2-yl)urea], the Ki in test [1] came out at 27.7 nM. Moreover, the IC50 in test [2] amounted to 0.45 µM.

Take `CCC1(CC)CN(c2ccccc2NC(=O)Nc2ccc(C3CCN(CC(C)(C)C)CC3)cc2)c2c(O)ccc(F)c21` [Example 4, 1-(2-(3,3-Diethyl-4-fluoro-7-hydroxyindolin-1-yl)phenyl)-3-(4-(1-neopentylpiperidin-4-yl)phenyl)urea]: the Ki in test [1] is 5.6 nM. The IC50 in test [2] came to 0.36 µM.

With `CC1(C)CN(c2ccccc2NC(=O)Nc2nc3ccc(F)cc3s2)c2c(O)cc(F)c(Br)c21` [Example 67, 1-(2-(4-Bromo-5-fluoro-7-hydroxy-3,3-dimethylindolin-1-yl)phenyl)-3-(6-fluorobenzo[d]thiazol-2-yl)urea], the Ki in test [1] turned out to be 13.8 nM. In test [2], the IC50 was found to be 0.77 µM.

Regarding `CC1(C)CN(c2ccccc2NC(=O)Nc2ccc(OC(F)(F)F)cc2)c2c(O)c(F)cc(Br)c21` [Example 69, 1-(2-(4-Bromo-6-fluoro-7-hydroxy-3,3-dimethylindolin-1-yl)phenyl)-3-(4-(trifluoromethoxy)phenyl)urea], in test [1], the Ki is 18.1 nM. Besides, the IC50 in test [2] was found to be 0.83 µM.

In the case of `CC1(C)CN(c2ccccc2NC(=O)Nc2ccc(OC(F)(F)F)cc2)c2c(O)cc(F)c(-c3nc4ccc(F)cc4s3)c21` [Example 144, 1-(2-(5-Fluoro-4-(6-fluorobenzo[d]thiazol-2-yl)-7-hydroxy-3,3-dimethylindolin-1-yl)phenyl)-3-(4-(trifluoromethoxy)phenyl)urea], the Ki in test [1] is 10 nM. Further, in test [2], the IC50 came out at 0.5 µM.

Take `CC1(C)CN(c2ccccc2NC(=O)Nc2ccc(OC(F)(F)F)cc2)c2c(O)ccc(Br)c21` [Example 40, 1-(2-(4-Bromo-7-hydroxy-3,3-dimethylindolin-1-yl)phenyl)-3-(4-(trifluoromethoxy)phenyl)urea]: the Ki in test [1] came out at 13.8 nM. In test [2], the IC50 was found to be 0.53 µM.

Turning to `CC1(C)CN(c2ccccc2NC(=O)Nc2nc3ccc(Cl)cc3s2)c2c(O)ccc(Br)c21` [Example 41, 1-(2-(4-Bromo-7-hydroxy-3,3-dimethylindolin-1-yl)phenyl)-3-(6-chlorobenzo[d]thiazol-2-yl)urea], in test [1], the Ki was determined as 10.6 nM. Moreover, the IC50 in test [2] came out at 0.47 µM.

In the case of `COc1ccc2nc(-c3ccc(O)c4c3C(C)(C)CN4c3ccccc3NC(=O)Nc3ccc(OC(F)(F)F)cc3)oc2c1` [Example 94, 1-(2-(7-Hydroxy-4-(6-methoxybenzo[d]oxazol-2-yl)-3,3-dimethylindolin-1-yl)phenyl)-3-(4-(trifluoromethoxy)phenyl)urea], the Ki in test [1] came out at 39.5 nM. The IC50 in test [2] stood at 0.48 µM.

Regarding `CC1(C)CN(c2ccccc2NC(=O)Nc2ccc(OC(F)(F)F)cc2)c2c(O)ccc(C3=NC(C(C)(C)C)CO3)c21` (stereo not drawn) [Example 104, 1-(2-(4-(4-tert-Butyl-4,5-dihydrooxazol-2-yl)-7-hydroxy-3,3-dimethylindolin-1-yl)phenyl)-3-(4-(trifluoromethoxy)phenyl)urea], the Ki in test [1] turned out to be 9.1 nM. Besides, the IC50 in test [2] was 0.46 µM.

Take `CC1(C)CN(c2ccccc2NC(=O)Nc2nc3ccc(F)cc3s2)c2c(O)ccc(-c3ccc(F)cc3)c21` [Example 210, 1-(6-Fluorobenzo[d]thiazol-2-yl)-3-(2-(4-(4-fluorophenyl)-7-hydroxy-3,3-dimethylindolin-1-yl)phenyl)urea]: in test [1], the Ki came to 12.4 nM. Further, the IC50 in test [2] is 0.08 µM.

Take `CCC1(CC)CN(c2ccccc2NC(=O)Nc2ccc(C3CCN(CC(C)C)CC3)cc2)c2c(O)ccc(F)c21` [Example 28, 1-(2-(3,3-Diethyl-4-fluoro-7-hydroxyindolin-1-yl)phenyl)-3-(4-(1-isobutylpiperidin-4-yl)phenyl)urea]: the Ki in test [1] stood at 8.1 nM. Further, in test [2], the IC50 turned out to be 0.54 µM.

`CCOC(=O)c1ccc(O)c2c1C(C)(C)CN2c1ccccc1NC(=O)Nc1ccc(OC(F)(F)F)cc1` [Example 81, Ethyl 7-hydroxy-3,3-dimethyl-1-(2-(3-(4-(trifluoromethoxy)-phenyl)-ureido)phenyl)indoline-4-carboxylate]: the Ki in test [1] is 8.6 nM. In addition, the 50% inhibitory concentration (IC50) in test [2] is 0.91 µM.

Regarding `CCC1(CC)CN(c2ccccc2NC(=O)Nc2ccc(C(C)(C)C)cc2)c2c(O)ccc(C#N)c21` [Example 44, 1-(4-tert-Butylphenyl)-3-(2-(4-cyano-3,3-diethyl-7-hydroxyindolin-1-yl)phenyl)urea], the Ki in test [1] was 6.9 nM. The IC50 in test [2] stood at 0.45 µM.

As to `CC1(C)CN(c2ccccc2NC(=O)Nc2nc3ccc(Cl)nc3s2)c2c(O)cc(F)c(-c3noc(C(F)(F)F)n3)c21` [Example 257, 1-(5-Chlorothiazolo[5,4-b]pyridin-2-yl)-3-(2-(5-fluoro-7-hydroxy-3,3-dimethyl-4-(5-(trifluoromethyl)-1,2,4-oxadiazol-3-yl)indolin-1-yl)phenyl)urea], the Ki in test [1] worked out at 86.2 nM. Besides, in test [2], the IC50 worked out at 0.29 µM.

As for `CC1(C)CN(c2ccccc2NC(=O)Nc2ccc(OC(F)(F)F)cc2)c2c(O)c(F)cc(CC(F)(F)F)c21` [Example 79, 1-(2-(6-Fluoro-7-hydroxy-3,3-dimethyl-4-(2,2,2-trifluoroethyl)indolin-1-yl)phenyl)-3-(4-(trifluoromethoxy)phenyl)urea], in test [1], the Ki is 9.7 nM. Besides, the IC50 in test [2] came out at 0.83 µM.

Consider `CC(C)(C)c1ccc(-c2c(F)cc(O)c3c2C(C)(C)CN3c2ccccc2NC(=O)Nc2csc(Cl)n2)cc1` [Example 242, 1-(2-(4-(4-(tert-Butyl)phenyl)-5-fluoro-7-hydroxy-3,3-dimethylindolin-1-yl)phenyl)-3-(2-chlorothiazol-4-yl)urea], for which the Ki in test [1] worked out at 12.6 nM. In addition, in test [2], the IC50 was found to be 0.06 µM.

On to `CC1(C)CN(c2ccccc2NC(=O)Nc2nc3ccc(Cl)cc3s2)c2c(O)cc(F)c(-c3cc(C(F)(F)F)no3)c21` [Example 265, 1-(6-Chlorobenzo[d]thiazol-2-yl)-3-(2-(5-fluoro-7-hydroxy-3,3-dimethyl-4-(3-(trifluoromethyl)isoxazol-5-yl)indolin-1-yl)phenyl)urea], for which the Ki in test [1] amounted to 49.9 nM. Moreover, the IC50 in test [2] came out at 0.4 µM.

`CC1(C)CN(c2ccccc2NC(=O)Nc2nc3ccc(F)cc3s2)c2c(O)cc(F)c(-c3ccc(C(F)(F)F)nc3)c21` [Example 158, 1-(2-(5-Fluoro-7-hydroxy-3,3-dimethyl-4-(6-(trifluoromethyl)pyridin-3-yl)indolin-1-yl)phenyl)-3-(6-fluorobenzo[d]thiazol-2-yl)urea]: the Ki in test [1] is 5.7 nM. The IC50 in test [2] was 0.2 µM.
